PubChem BioAssay (NCI)
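A five-concentration, 48-hour dose response in 96-well plates underlies each endpoint, interpolated linearly between surrounding concentrations. The concentration for full growth arrest is given as TGI.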

Key:
Assay in all cases: NCI-60 cell line screen, 48 h
[1] = test system: 786-0 renal
[2] = test system: A498 renal
[3] = test system: A549 NSCLC
[4] = test system: ACHN renal
[5] = test system: BT-549 breast
[6] = test system: CAKI-1 renal
[7] = test system: COLO 205 colon
[8] = test system: DU-145 prostate
[9] = test system: EKVX NSCLC
[10] = test system: HCC-2998 colon
[11] = test system: HCT-116 colon
[12] = test system: HCT-15 colon
[13] = test system: HL-60(TB) leukemia
[14] = test system: HOP-62 NSCLC
[15] = test system: HOP-92 NSCLC
[16] = test system: HS 578T breast
[17] = test system: HT29 colon
[18] = test system: IGROV1 ovarian
[19] = test system: K-562 leukemia
[20] = test system: KM12 colon
[21] = test system: LOX IMVI melanoma
[22] = test system: M14 melanoma
[23] = test system: MALME-3M melanoma
[24] = test system: MCF7 breast
[25] = test system: MDA-MB-231 breast
[26] = test system: MDA-MB-435
[27] = test system: MDA-N
[28] = test system: MOLT-4 leukemia
[29] = test system: NCI-H226 lung
[30] = test system: NCI-H23 lung
[31] = test system: NCI-H460 lung
[32] = test system: NCI-H522 lung
[33] = test system: NCI/ADR-RES ovarian
[34] = test system: OVCAR-3 ovarian
[35] = test system: OVCAR-4 ovarian
[36] = test system: OVCAR-5 ovarian
[37] = test system: OVCAR-8 ovarian
[38] = test system: PC-3 prostate
[39] = test system: RPMI-8226 leukemia
[40] = test system: RXF 393 renal
[41] = test system: SF-268 CNS
[42] = test system: SF-295 CNS
[43] = test system: SK-MEL-2 melanoma
[44] = test system: SK-MEL-28 melanoma
[45] = test system: SK-MEL-5 melanoma
[46] = test system: SK-OV-3 ovarian
[47] = test system: SN12C renal
[48] = test system: SNB-19 CNS
[49] = test system: SNB-75 CNS
[50] = test system: SW-620 colon
[51] = test system: T-47D breast
[52] = test system: TK-10 renal
[53] = test system: U251 CNS
[54] = test system: UACC-257 melanoma
[55] = test system: UACC-62 melanoma
[56] = test system: UO-31 renal
[57] = test system: CCRF-CEM leukemia
[58] = test system: SF-539 CNS
[59] = test system: SR leukemia

Structure (SMILES): COP(=O)(O)/C=C/C(NC(=O)C(Cl)(Cl)Cl)c1ccccc1 (stereo not drawn)
- TGI [1]: > 100 µM
- TGI [2]: > 100 µM
- TGI [3]: > 100 µM
- TGI [4]: > 100 µM
- TGI [5]: > 100 µM
- TGI [6]: > 100 µM
- TGI [7]: > 100 µM
- TGI [8]: > 100 µM
- TGI [9]: > 100 µM
- TGI [10]: > 100 µM
- TGI [11]: > 100 µM
- TGI [12]: > 100 µM
- TGI [13]: > 100 µM
- TGI [14]: > 100 µM
- TGI [15]: > 100 µM
- TGI [16]: > 100 µM
- TGI [17]: > 100 µM
- TGI [18]: > 100 µM
- TGI [19]: > 100 µM
- TGI [20]: > 100 µM
- TGI [21]: > 100 µM
- TGI [22]: > 100 µM
- TGI [23]: > 100 µM
- TGI [24]: > 100 µM
- TGI [25]: > 100 µM
- TGI [26]: > 100 µM
- TGI [27]: > 100 µM
- TGI [28]: > 100 µM
- TGI [29]: > 100 µM
- TGI [30]: > 100 µM
- TGI [31]: > 100 µM
- TGI [32]: > 100 µM
- TGI [33]: > 100 µM
- TGI [34]: > 100 µM
- TGI [35]: > 100 µM
- TGI [36]: > 100 µM
- TGI [37]: > 100 µM
- TGI [38]: > 100 µM
- TGI [39]: > 100 µM
- TGI [40]: > 100 µM
- TGI [41]: > 100 µM
- TGI [42]: > 100 µM
- TGI [43]: > 100 µM
- TGI [44]: > 100 µM
- TGI [45]: > 100 µM
- TGI [46]: > 100 µM
- TGI [47]: > 100 µM
- TGI [48]: > 100 µM
- TGI [49]: > 100 µM
- TGI [50]: > 100 µM
- TGI [51]: > 100 µM
- TGI [52]: > 100 µM
- TGI [53]: > 100 µM
- TGI [54]: > 100 µM
- TGI [55]: > 100 µM
- TGI [56]: > 100 µM

Structure (SMILES): CC(CC(C#N)(c1ccccc1)c1ccccc1)N1CCCCC1 (stereo not drawn)
- TGI [1]: 80.3 µM
- TGI [2]: 85.1 µM
- TGI [3]: > 100 µM
- TGI [4]: > 100 µM
- TGI [5]: > 100 µM
- TGI [6]: > 100 µM
- TGI [57]: 46.6 µM
- TGI [7]: 32.9 µM
- TGI [8]: > 100 µM
- TGI [9]: 56.3 µM
- TGI [10]: 29.1 µM
- TGI [11]: 57.7 µM
- TGI [12]: 68.6 µM
- TGI [13]: 42.3 µM
- TGI [14]: 88.4 µM
- TGI [15]: > 100 µM
- TGI [16]: 79.9 µM
- TGI [17]: 51 µM
- TGI [18]: > 100 µM
- TGI [19]: 45.5 µM
- TGI [20]: 49.2 µM
- TGI [21]: 33.5 µM
- TGI [22]: 39.1 µM
- TGI [23]: 35.6 µM
- TGI [24]: 74.7 µM
- TGI [25]: 63.8 µM
- TGI [26]: 49.4 µM
- TGI [27]: 46.7 µM
- TGI [28]: 49.3 µM
- TGI [29]: 46.4 µM
- TGI [30]: > 100 µM
- TGI [31]: 31.7 µM
- TGI [32]: 36.7 µM
- TGI [33]: > 100 µM
- TGI [34]: 44.5 µM
- TGI [35]: > 100 µM
- TGI [36]: > 100 µM
- TGI [37]: > 100 µM
- TGI [38]: > 100 µM
- TGI [39]: 40.7 µM
- TGI [40]: > 100 µM
- TGI [41]: > 100 µM
- TGI [42]: 65.8 µM
- TGI [43]: 46.4 µM
- TGI [44]: 67 µM
- TGI [45]: 33.6 µM
- TGI [46]: > 100 µM
- TGI [47]: 74.5 µM
- TGI [48]: > 100 µM
- TGI [49]: > 100 µM
- TGI [50]: 49.5 µM
- TGI [51]: > 100 µM
- TGI [52]: 46.5 µM
- TGI [53]: > 100 µM
- TGI [54]: 29.6 µM
- TGI [55]: 59.1 µM
- TGI [56]: 79.6 µM

Structure (SMILES): CCNC(=O)Nc1ccccn1
- TGI [1]: > 100 µM
- TGI [2]: > 100 µM
- TGI [3]: > 100 µM
- TGI [4]: > 100 µM
- TGI [5]: > 100 µM
- TGI [6]: > 100 µM
- TGI [57]: > 100 µM
- TGI [7]: > 100 µM
- TGI [8]: > 100 µM
- TGI [9]: > 100 µM
- TGI [10]: > 100 µM
- TGI [11]: > 100 µM
- TGI [13]: > 100 µM
- TGI [14]: > 100 µM
- TGI [15]: > 100 µM
- TGI [16]: > 100 µM
- TGI [17]: > 100 µM
- TGI [18]: > 100 µM
- TGI [19]: > 100 µM
- TGI [20]: > 100 µM
- TGI [22]: > 100 µM
- TGI [23]: > 100 µM
- TGI [24]: > 100 µM
- TGI [25]: > 100 µM
- TGI [26]: > 100 µM
- TGI [27]: > 100 µM
- TGI [28]: > 100 µM
- TGI [29]: > 100 µM
- TGI [30]: > 100 µM
- TGI [31]: > 100 µM
- TGI [32]: > 100 µM
- TGI [34]: > 100 µM
- TGI [35]: > 100 µM
- TGI [36]: > 100 µM
- TGI [37]: > 100 µM
- TGI [38]: > 100 µM
- TGI [40]: > 100 µM
- TGI [41]: > 100 µM
- TGI [42]: > 100 µM
- TGI [58]: > 100 µM
- TGI [44]: > 100 µM
- TGI [45]: > 100 µM
- TGI [46]: > 100 µM
- TGI [47]: > 100 µM
- TGI [48]: > 100 µM
- TGI [49]: > 100 µM
- TGI [59]: > 100 µM
- TGI [50]: > 100 µM
- TGI [51]: > 100 µM
- TGI [52]: > 100 µM
- TGI [53]: > 100 µM
- TGI [54]: > 100 µM
- TGI [55]: > 100 µM
- TGI [56]: > 100 µM

Structure (SMILES): Cc1ccc(S(=O)(=O)Oc2cc(N)c3c(n2)CCC3)cc1
- TGI [1]: > 100 µM
- TGI [2]: > 100 µM
- TGI [3]: > 100 µM
- TGI [4]: > 100 µM
- TGI [5]: > 100 µM
- TGI [6]: > 100 µM
- TGI [57]: > 100 µM
- TGI [7]: > 100 µM
- TGI [8]: > 100 µM
- TGI [9]: > 100 µM
- TGI [10]: > 100 µM
- TGI [11]: > 100 µM
- TGI [12]: > 100 µM
- TGI [13]: > 100 µM
- TGI [14]: > 100 µM
- TGI [15]: > 100 µM
- TGI [16]: > 100 µM
- TGI [17]: > 100 µM
- TGI [18]: > 100 µM
- TGI [19]: > 100 µM
- TGI [20]: > 100 µM
- TGI [21]: > 100 µM
- TGI [22]: > 100 µM
- TGI [24]: > 100 µM
- TGI [25]: > 100 µM
- TGI [26]: > 100 µM
- TGI [27]: > 100 µM
- TGI [28]: > 100 µM
- TGI [29]: > 100 µM
- TGI [30]: > 100 µM
- TGI [31]: > 100 µM
- TGI [33]: > 100 µM
- TGI [34]: > 100 µM
- TGI [35]: > 100 µM
- TGI [36]: > 100 µM
- TGI [37]: > 100 µM
- TGI [38]: > 100 µM
- TGI [39]: > 100 µM
- TGI [40]: > 100 µM
- TGI [41]: > 100 µM
- TGI [42]: > 100 µM
- TGI [58]: > 100 µM
- TGI [43]: > 100 µM
- TGI [44]: > 100 µM
- TGI [45]: > 100 µM
- TGI [46]: > 100 µM
- TGI [47]: > 100 µM
- TGI [48]: > 100 µM
- TGI [49]: > 100 µM
- TGI [50]: > 100 µM
- TGI [51]: > 100 µM
- TGI [52]: > 100 µM
- TGI [53]: > 100 µM
- TGI [54]: > 100 µM
- TGI [55]: > 100 µM
- TGI [56]: > 100 µM
